Test results reported in patent US9211290B2, “Solid dispersions of amorphous paroxetine mesylate” (priority 2012, dated 2015).

What was measured:
[1] = Physical stability of solid dispersions exposed in open containers to temperature/humidity stress (PLM, XRPD); assay type: physicochemical
Description: X-ray Powder Diffraction (XRPD): XRPD patterns were collected using a PANalytical X'Pert Pro diffractometer. The specimen was analyzed using Cu radiation produced using an Optix long fine-focus source. An elliptically graded multilayer mirror was used to focus the Cu Kα X-rays of the source through the specimen and onto the detector. The specimen was sandwiched between 3-micron thick films, analyzed in transmission geometry, and rotated to optimize orientation statistics. Soller slits were used for the incident and diffracted beams to minimize axial divergence. Diffraction patterns were collected using a scanning position-sensitive detector (X'Celerator) located 240 mm from the specimen. Prior to the analysis, a silicon specimen (NIST standard reference material 640d) was analyzed to verify the position of the silicon 111 peak.
Polarized Light Microscopy (PLM): Polarized light microscopy was performed using a Leica DM LP microscope equipped with Spot Insight color camera (model 3.2.0). […]
Physical stability experiments were conducted by exposing the dispersions in open containers at Room Temperature (RT) and at elevated temperature and different humidities (expressed as relative humidity, RH). […]
Physical stability was evaluated visually at RT/75% RH after approximately 24 h by PLM for evidence of birefringence and extinction indicative of crystalline material. […]

[2] = Aqueous solubility of paroxetine mesylate Form A; assay type: physicochemical; conditions: water

CS(=O)(=O)O.Fc1ccc([C@@H]2CCNC[C@H]2COc2ccc3c(c2)OCO3)cc1 [Example 1-2, paroxetine mesylate]
Acceptable Physical Stability? RT/58% RH 3 d ([1]; 25° C./58% RH used instead of RT/58% RH (footnote b), 3 d): N
Acceptable Physical Stability? 60° C./75% RH 2 h ([1]; 60° C./75% RH, 2 h): N

CS(=O)(=O)O.Fc1ccc([C@@H]2CCNC[C@H]2COc2ccc3c(c2)OCO3)cc1 [paroxetine mesylate Form A, paroxetine mesylate]
solubility [2]: > 1000 mg/mL
